Laboratory results taken from patent US20240327356A1, “PYRIMIDINE BASED RAS MODULATORS AND USES THEREOF” (QUANTA THERAPEUTICS, INC., priority 2021, published 2024).
pEC50, pIC50: −log10 of the molar value.

Assays:
[1] = test system: Phospho-ERK (Thr202/Tyr204) in MiaPaCa-2 cells; assay: pERK inhibition in MiaPaca-2 cell line (HTRF); type: cell-based; conditions: Homo sapiens, MIA PaCa-2, 1 hour incubation with compound
Experimental: MiaPaCa-2 cells (ATCC CRL-1420) were cultured in high glucose DMEM (Gibco 11965092) containing 10% fetal bovine serum (Gibco 1993708) and 1× Penicillin/Streptomycin, at 37° C. in a humid atmosphere of 5% CO2 in the air. Cells were plated in tissue-culture treated 96-well plates at a density of 10,000 cells/well and allowed to attach for 16 hours. The medium was then removed, and diluted compounds were added in a final concentration of 0.5% DMSO. After 1 hour of incubation, cells were lysed by the lysis buffer supplied with the Phospho-ERK (Thr202/Tyr204) cellular HTRF kit (Cisbio 64ERKPEH) and transferred to a 384-well low-volume white plate (PerkinElmer 6008280). The cell lysates were treated with the detection reagents supplied with the HTRF kit for 4 hours at ambient temperature in darkness. Two fluorescence intensities at the wavelengths (665 and 620 nm) were measured by the Envision plate reader (Perkin Elmer), and the data were processed and fitted to a 4-parameter logistic model for IC50 calculation (GraphPad Prism 9).

[2] = target: KRAS^G12D-FMe.RAF1^RBDCRD complex (Homo sapiens, UniProt P01116, G12D); assay: SHG assay: binding to bilayer-tethered KRAS G12D/RAF1 complex; conditions: GppNHp-loaded complex on PS bilayer; compound 0.027-40 μM, monitored over 60 min
Experimental: Compounds suspected to carry intrinsic SHG activity were tested in the presence of an unlabeled KRAS^G12D-FMe.RAF1^RBDCRD complex to monitor binding. PS bilayer was prepared from PS-enriched small unilamellar vesicles (SUVs) purchased from Biodesy, Inc. The concentrated SUVs were diluted in TBS buffer containing 5 mM CaCl2 and incubated on a glass-bottom 384-well Biodesy Delta™ assay plate to allow bilayer formation. Equimolar amounts of GppNHp-loaded KRAS^G12D-FMe and RAF1^RBDCRD were mixed and incubated together on PS bilayer overnight at 4° C. The following day, untethered protein was removed by washing with assay buffer (20 mM Hepes, pH 7.4, […], 1 mM TCEP, 5 μM GppNHp). The SHG signal produced by bilayer-tethered complex was ready using the Biodesy Delta™ platform where each well was pulsed with an 800 nm laser and the resulting second harmonic signal intensity at 400 nm was collected. Compounds were diluted into the same assay buffer and applied to the complex at a final concentration range spanning 0.027 μM-40 μM and the SHG intensity of each well was monitored at 5 minute intervals over a 60 minute time period.

SMILES	pIC50 [1]	pEC50 [2]
Cc1ccc(-c2ncc(CNC(=O)C3(F)CC3)c(O[C@@H]3CNC[C@@H]3O)n2)cc1Cl (racemic) [Compound 100]	4.30 to 5.00	
NCc1cnc(-c2ccc(Cl)c(C(F)(F)F)c2)nc1N1CC[C@@H](CN)C1 [Compound 1]	4.30 to 5.00	5.00 to 6.00
NC[C@@H]1CCN(c2nc(-c3ccc(Cl)c(C(F)(F)F)c3)ncc2C2=CCNC2)C1 [Compound 2, [(3S)-1-[2-[4-chloro-3-(trifluoromethyl)phenyl]-5-(2,5-dihydro-1H-pyrrol-3-yl)pyrimidin-4-yl]pyrrolidin-3-yl]methanamine]	5.00 to 6.00	6.00 to 7.00
NCCOc1cnc(-c2ccc(Cl)c(C(F)(F)F)c2)nc1N1CC[C@@H](CN)C1 [Compound 3, (S)-2-((4-(3-(aminomethyl)pyrrolidin-1-yl)-2-(4-chloro-3-(trifluoromethyl)phenyl)pyrimidin-5-yl)oxy)ethan-1-amine]	5.00 to 6.00	
NCc1cnc(-c2ccc(Cl)c(C(F)(F)F)c2)nc1N1CCC(CN)C1 (centres unmarked) [Compound 4]		5.00 to 6.00
CS(=O)(=O)NCc1cnc(-c2ccc(Cl)c(C(F)(F)F)c2)nc1N1CCC(CN)C1 (centres unmarked) [Compound 6, N-[[4-[3-(aminomethyl)pyrrolidin-1-yl]-2-[4-chloro-3-(trifluoromethyl)phenyl]pyrimidin-5-yl]methyl]methanesulfonamide]		5.00 to 6.00
NCC1CCN(c2nc(-c3ccc(Cl)c(C(F)(F)F)c3)ncc2CNC(=O)C2(F)CC2)C1 (centres unmarked) [Compound 7]	5.00 to 6.00	5.00 to 6.00
NCC1CCN(c2nc(-c3ccc(C(F)(F)F)cc3F)ncc2C2=CCNC2)C1 (centres unmarked) [Compound 8]	5.00 to 6.00	
NCC1CCN(c2nc(-c3ccc(Cl)c(C(F)(F)F)c3)ncc2CNC(=O)c2ccccc2)C1 (centres unmarked) [Compound 9]	4.30 to 5.00	5.00 to 6.00
NCC1CCN(c2nc(-c3ccc(Cl)c(Cl)c3)ncc2C2=CCNC2)C1 (centres unmarked) [Compound 10]	5.00 to 6.00	5.00 to 6.00
NCC1CCN(c2nc(-c3ccc(Cl)cc3F)ncc2C2=CCNC2)C1 (centres unmarked) [Compound 11]	5.00 to 6.00	
NCC1CCN(c2nc(-c3ccc(Cl)c(C(F)(F)F)c3)ncc2OC2CCOC2)C1 (centres unmarked) [Compound 12]	5.00 to 6.00	5.00 to 6.00
NCC1CCN(c2nc(-c3ccc(Cl)c(C(F)(F)F)c3)ncc2OC2CNC2)C1 (centres unmarked) [Compound 13]	5.00 to 6.00	
NC[C@@H]1CCN(c2nc(-c3ccc(Cl)c(C(F)(F)F)c3)ncc2C2CC2)C1 [Compound 14]	4.30 to 5.00	5.00 to 6.00
NCC1CCN(c2nc(-c3ccc(Cl)c(C(F)(F)F)c3)ncc2OC2CCNC2)C1 (centres unmarked) [Compound 15]	5.00 to 6.00	
NCC1CCN(c2nc(-c3ccc(Cl)c(C(F)(F)F)c3)ncc2OC2COC2)C1 (centres unmarked) [Compound 16]	5.00 to 6.00	
NCC1CCN(c2nc(-c3ccc(C(F)(F)F)cc3F)ncc2C2CCNC2)C1 (centres unmarked) [Compound 17, [1-[2-[2-fluoro-4-(trifluoromethyl)phenyl]-5-pyrrolidin-3-yl-pyrimidin-4-yl]pyrrolidin-3-yl]methanamine]	5.00 to 6.00	5.00 to 6.00
NCC1CCN(c2nc(-c3ccc(C(F)(F)F)cc3F)ncc2CNC(=O)Nc2ccccc2)C1 (centres unmarked) [Compound 19, 1-[[4-[3-(aminomethyl)pyrrolidin-1-yl]-2-[2-fluoro-4-(trifluoromethyl)phenyl]pyrimidin-5-yl]methyl]-3-phenyl-urea]	5.00 to 6.00	5.00 to 6.00
CCOC(=O)NCc1cnc(-c2ccc(C(F)(F)F)cc2F)nc1N1CCC(CN)C1 (centres unmarked) [Compound 21, ethyl N-[[4-[3-(aminomethyl)pyrrolidin-1-yl]-2-[2-fluoro-4-(trifluoromethyl)phenyl]pyrimidin-5-yl]methyl]carbamate]	4.30 to 5.00	
N#Cc1cc(-c2ncc(C3=CCNC3)c(N3CCC(CN)C3)n2)ccc1Cl (centres unmarked) [Compound 22]	5.00 to 6.00	
NCC1CCN(c2nc(-c3ccc(Cl)cc3NC(=O)C3(F)CC3)ncc2C2=CCNC2)C1 (centres unmarked) [Compound 23]	5.00 to 6.00	5.00 to 6.00
N#CC1(C(=O)NCc2cnc(-c3ccc(Cl)cc3F)nc2N2CCC(CN)C2)CC1 (centres unmarked) [Compound 24]	4.30 to 5.00	
N#CC1(C(=O)NCc2cnc(-c3ccc4ccccc4c3)nc2N2CCC(CN)C2)CC1 (centres unmarked) [Compound 64]	4.30 to 5.00	
CN1CC(Oc2nc(-c3ccc(Cl)c(C(F)(F)F)c3)ncc2CNC(=O)C2(C#N)CC2)C1 [Compound 78]		4.30 to 5.00
CN1CCC(Oc2nc(-c3ccc(Cl)c(C(F)(F)F)c3)ncc2CNC(=O)C2(C#N)CC2)C1 (centres unmarked) [Compound 79]		4.30 to 5.00
Cc1ccc(-c2ncc(CNC(=O)C3CNC3)c(N3CCC(CN)C3)n2)cc1Cl (centres unmarked) [Compound 85]		5.00 to 6.00

SMILES	pIC50 [1]	pEC50 [2]
Cc1ccc(-c2ncc(CNC(=O)C3CN(C)C3)c(N3CCC(CN)C3)n2)cc1Cl (centres unmarked) [Compound 86]		5.00 to 6.00
Cc1ccc(-c2ncc(NS(=O)(=O)C3CC3)c(N3CCC(CN)C3)n2)cc1Cl (centres unmarked) [Compound 111]	5.00 to 6.00	
Cc1ccc(-c2ncc(NC(=O)c3ccccc3)c(N3CCC(CN)C3)n2)cc1Cl (centres unmarked) [Compound 114]	5.00 to 6.00	
Cc1ccc(-c2ncc(CNC(=O)C3(C#N)CC3)c(N3CCN(C)CC3)n2)cc1Cl [Compound 115]	5.00 to 6.00	
N#CC1(C(=O)NCc2cnc(-c3ccc4c(c3)CC4)nc2N2CCC(CN)C2)CC1 (centres unmarked) [Compound 117]	5.00 to 6.00	
Cc1ccc(-c2ncc(OCC(=O)N(C)C)c(N3CCC(CN)C3)n2)cc1Cl (centres unmarked) [Compound 127]	5.00 to 6.00	
Cc1ccc(-c2ncc(CNC(=O)C3(F)CC3)c(CN3CCN(C)CC3)n2)cc1Cl [Compound 128, N-[[2-(3-chloro-4-methyl-phenyl)-4-[(4-methylpiperazin-1-yl)methyl]pyrimidin-5-yl]methyl]-1-fluoro-cyclopropanecarboxamide]	4.30 to 5.00	
Cc1ccc(-c2ncc(CNC(=O)C3(C#N)CC3)c(N3CCC(CN(C)C)C3)n2)cc1Cl (centres unmarked) [Compound 129]		5.00 to 6.00
Cc1ccc(-c2ncc(CNc3ccccc3)c(N3CCC(CN)C3)n2)cc1Cl (centres unmarked) [Compound 130]		5.00 to 6.00
Cc1ccc(-c2ncc(OCC(=O)Nc3ccccc3)c(N3CCC(CN)C3)n2)cc1Cl (centres unmarked) [Compound 131]		5.00 to 6.00
Cc1ccc(-c2ncc(CNCC3CC3)c(N3CCC(CN)C3)n2)cc1Cl (centres unmarked) [Compound 132]		5.00 to 6.00
Cc1ccc(-c2ncc(CNC(=O)C(F)c3ccccc3)c(N3CCC(CN)C3)n2)cc1Cl (centres unmarked) [Compound 133]		5.00 to 6.00
Cc1ccc(-c2ncc(CNC(=O)C(F)(F)c3ccccc3)c(N3CCC(CN)C3)n2)cc1Cl (centres unmarked) [Compound 134]		5.00 to 6.00
Cc1ccc(-c2ncc(CNC(=O)C3Cc4ccccc4O3)c(N3CCC(CN)C3)n2)cc1Cl (centres unmarked) [Compound 135]		5.00 to 6.00
N#CC1(C(=O)NCc2cnc(-c3cc(F)c(C(F)(F)F)c(F)c3)nc2N2CCC(CN)C2)CC1 (centres unmarked) [Compound 137]		5.00 to 6.00
Cc1c(Cl)cc(-c2ncc(CNC(=O)C3(C#N)CC3)c(N3CCC(CN)C3)n2)cc1Cl (centres unmarked) [Compound 139]		5.00 to 6.00
Cc1c(F)cc(-c2ncc(CNC(=O)C3(C#N)CC3)c(N3CCC(CN)C3)n2)cc1[N+](=O)[O-] (centres unmarked) [Compound 140]		5.00 to 6.00
N#CC1(C(=O)NCc2cnc(-c3ccc(Cl)c(OC(F)(F)F)c3)nc2N2CCC(CN)C2)CC1 (centres unmarked) [Compound 141]		5.00 to 6.00
CN(C)CC1CCN(c2nc(-c3cc(Cl)cc(-c4ccccc4)c3)ncc2CNC(=O)C2(C#N)CC2)C1 (centres unmarked) [Compound 142]		5.00 to 6.00
CN(C)CC1CCN(c2nc(-c3cc(Cl)cc(C#Cc4ccccc4)c3)ncc2CNC(=O)C2(C#N)CC2)C1 (centres unmarked) [Compound 143]		5.00 to 6.00
CN(C)CC1CCN(c2nc(-c3cc(Cl)cc(/C=C/c4ccccc4)c3)ncc2CNC(=O)C2(C#N)CC2)C1 (centres unmarked) [Compound 144]		5.00 to 6.00
C#CC1(C(=O)NCc2cnc(-c3ccc(Cl)c(C(F)(F)F)c3)nc2N2CCC(CN)C2)CC1 (centres unmarked) [Compound 145]		5.00 to 6.00
C#Cc1cc(-c2ncc(CNC(=O)C3(C#N)CC3)c(N3CCC(CN(C)C)C3)n2)cc(F)c1C (centres unmarked) [Compound 147, 1-cyano-N-[[4-[3-[(dimethylamino)methyl]pyrrolidin-1-yl]-2-(3-ethynyl-5-fluoro-4-methyl-phenyl)pyrimidin-5-yl]methyl]cyclopropanecarboxamide]		4.30 to 5.00
CN(C)CC1CCN(c2nc(-c3cc(Cl)cc(Cc4ccccc4)c3)ncc2CNC(=O)C2(C#N)CC2)C1 (centres unmarked) [Compound 148]		5.00 to 6.00
CN(C)CC1CCN(c2nc(-c3cc(Cl)cc(C(F)c4ccccc4)c3)ncc2CNC(=O)C2(C#N)CC2)C1 (centres unmarked) [Compound 149]		5.00 to 6.00
CN(C)CC1CCN(c2nc(-c3ccc(Cc4ccccc4)c(Cl)c3)ncc2CNC(=O)C2(C#N)CC2)C1 (centres unmarked) [Compound 150]		5.00 to 6.00
